Test results published in US9448226B2, “Method of toxicological evaluation, method of toxicological screening and associated system” (Universite Technologie De Compiegne—UTC, priority 2010, dated 2016).

What was measured:
HEPG2/C3A cells = assay: Metabolic response of C3A bioartificial liver in bioreactor to xenobiotic (1H NMR, PLS regression); assay type: cell-based, human; parameters: key: +: sign of the variation of its concentration (in brackets) when the amount of xenobiotic in the experiment increases; −: sign of the variation of its concentration (in brackets) when the amount of xenobiotic in the experiment increases
Source text: (§1) In the preferred embodiment described, ^1H NMR spectroscopy (proton NMR, which makes it possible to detect hydrogen atoms) was used to carry out a series of tests. These tests involved two cell lines and three potentially toxic substances, with the two lines being optionally in coculture. These cells are in one case HEPG2/C3A cells, or simply C3A, human hepatocyte cells, and in the other case Madin-Darby canine kidney (MDCK) cells. […] In particular, mention may be made of the pancreas, the heart, the testicles, parts of the brain, etc.
(§2) The medium samples are, for example, prepared using 350 μl of medium, mixed with 200 μl of 0.9 g/l saline solution composed of 90% water (H2O) and 10% heavy water (D2O), for the purpose of calibration. The 550 μl of solution is then transferred to an NMR analysis tube.
(§3) NMR is acquired at a frequency of 700 MHz by using a proton probe. A ^1D NMR spectrum is recorded using presaturation of the resonance of the water according to the following sequence: Trd-P90-t1-P90-tm-P90-Taq. Trd represents a delay of 2 seconds during which the resonance of the water is selectively irradiated, P90 is a 90° pulse of radio frequency and t1 corresponds to a delay of 3 μs. The resonance of the water is irradiated a second time during the mixing time (tm=100 ms) and an acquisition time of 1.95 s. For each sample, 128 interferograms are accumulated in order to increase the signal-to-noise ratio. These interferograms are multiplied by an exponential function corresponding to a 0.3 Hz enlarging of the line. Before obtaining a Fourier transform, the width of the interferogram is doubled by adding null points at the end of the interferogram, in order not to degrade the resolution of the spectrum. The scale in the horizontal dimension corresponds to the ^1H chemical shifts. It extends over a window of 10 ppm around the resonance of water. The scale in the vertical dimension corresponds to resonance intensity which is proportional to the number of protons present for a chemical group of each molecule of the sample. The spectra are then phased and a linear correction of the baseline is carried out, before calibration on the signal of the […] anomer of glucose at 5.23 ppm. The area between 4.67 ppm and 5 ppm around the residual signal of water is suppressed for better visibility, and the spectra are exported as a multidimensional data set.
(§4) The statistical analysis consists first of an unsupervised principal components analysis in order to locate aberrant points in the multidimensional data set. The principal components analysis makes it possible to compress the 40,000 redundant NMR present in the data set in a new orthonormal reference, with each axis representing a principal component of the variance of the data set, which is thus multidimensional. A so-called supervised multivariate statistical analysis is then carried out in order to discriminate culture conditions or groups of doses and to identify the metabolic signatures specific to the toxicological effects. This supervised analysis is principally carried out using partial least squares regression, through partial least squares discriminant analysis (PLS-DA), without however being limited to it. A PLS regression, just like a linear regression, makes it possible to identify the components of the data set (explanatory variables, X) that are quantitatively correlated with the non-explanatory variable (Y), whether the culture conditions, the cell type of the bioartificial organ, the type of treatment administered or the treatment dose. Artificial neural network structures can also be programmed to carry out this multivariate analysis.
(§5) Third, the metabolic responses of the various organs to various exposures to NH3 were studied. Three amounts of NH3 were administered (0 mM, 5 mM and 10 mM) to each type of bioartificial organ.

C3A/MDCK coculture = conditions: NH3 0 mM, 5 mM and 10 mM
Source text: as §1, §2, §3, §4, §5

[1] = tested on: Madin-Darby canine kidney (MDCK) cells; conditions: Bioartificial kidney (MDCK cells); NH3 0 mM, 5 mM and 10 mM
Source text: as §1, §2, §3, §4, §5

C3A cells = assay: Metabolic response of C3A cell culture in Petri dishes to APAP (1H NMR, PLS regression); assay type: cell-based, human; parameters: key: +: sign of the variation of its concentration (in brackets) when the amount of xenobiotic in the experiment increases; −: sign of the variation of its concentration (in brackets) when the amount of xenobiotic in the experiment increases; conditions: amount of xenobiotic increases
Description: Fourth, the specific metabolic responses of bioartificial livers exposed to various toxins were characterized (Table 4). Several toxic substances (NH3 ([…]); DMSO (0%, 1%, 2%, 4%); APAP (0.1 mM)) were administered to bioartificial livers comprised of C3A cells. In the case of treatment with APAP, the response of the bioartificial liver was compared with that of liver cells in culture in Petri dishes. […] The result is four PLS models specific to each treatment type: NH3 on C3A bioartificial liver, DMSO on C3A bioartificial liver, APAP on C3A bioartificial liver and, finally, APAP on C3A cell culture in Petri dishes. […] This table presents for each metabolite the sign of the variation of its concentration (in brackets) when the amount of xenobiotic in the experiment increases.

[2] = Bioartificial liver (C3A cells), NH3 0 mM, 5 mM and 10 mM
[3] = C3A bioartificial liver, amount of xenobiotic increases (Table 4)

## N [NH3, ammonia]
HEPG2/C3A cells; [2]
  Variation of Alanine concentration: +
  Variation of Alpha-keto-isovalerate concentration: −
  Variation of Alpha-keto-methylvalerate concentration: −
  Variation of Isoleucine concentration: +
  Variation of Leucine concentration: +
  Variation of Succinate concentration: +
  Variation of Valine concentration: +
HEPG2/C3A cells; [3]
  Variation of Alanine concentration: Alanine (+)
  Variation of Alpha-keto-isovalerate concentration: isovalerate (−)
  Variation of Alpha-keto-methylvalerate concentration: methylvalerate (−)
  Variation of Isoleucine concentration: Isoleucine (+)
  Variation of Leucine concentration: Leucine (+)
  Variation of Succinate concentration: Succinate (+)
  Variation of Valine concentration: Valine (+)
C3A/MDCK coculture
  Variation of Alpha-hydroxyisobutyrate concentration: +
  Variation of Glutamate concentration: +
  Variation of Glutamine concentration: +
  Variation of Lysine concentration: +
  Variation of Ornithine concentration: −
  Variation of Succinate concentration: +
  Variation of Valine concentration: +
[1]
  Variation of Glutamine concentration: −
  Variation of Lysine concentration: −
  Variation of Oxaloacetate concentration: −
  Variation of Pyroglutamate concentration: +
  Variation of Pyruvate concentration: −
  Variation of Unknown metabolite concentration: −

## CC(=O)Nc1ccc(O)cc1 [APAP, N-acetyl-para-aminophenol]
C3A cells
  Variation of Arginine concentration: Arginine (−)
  Variation of Ethanol concentration: Ethanol (−)
  Variation of Glutamate concentration: Glutamate (−)
  Variation of Isoleucine concentration: Isoleucine (−)
  Variation of Leucine concentration: Leucine (−)
  Variation of Lysine concentration: Lysine (−)
  Variation of Phenylalanine concentration: Phenylalanine (−)
HEPG2/C3A cells; [3]
  Variation of Acetate concentration: Acetate (+)
  Variation of Isoleucine concentration: Isoleucine (−)
  Variation of Pyruvate/oxaloacetate concentration: oxaloacetate (−)
  Variation of Succinate concentration: Succinate (−)
  Variation of Tyrosine concentration: Tyrosine (+)
  Variation of Unknown metabolite concentration: Unknown (−)

## C[S+](C)[O-] [DMSO, dimethyl sulfoxide]
HEPG2/C3A cells; [3]
  Variation of Alpha-keto-isovalerate concentration: isovalerate (−)
  Variation of Alpha-keto-methylvalerate concentration: methylvalerate (−)
  Variation of Glucose concentration: Glucose (+)
  Variation of Lactate concentration: Lactate (−)
  Variation of Phenylalanine concentration: Phenylalanine (+)
  Variation of Tyrosine concentration: Tyrosine (+)
